Source: patent publication US20240150363A1, “COELENTERAZINE ANALOGUES” (Promega Corporation, priority 2022, published 2024)

How the values were obtained:
[1] = Stability of formulated Compound 6 (P-407 cake) in reconstitution buffers, LC-MS; format: physicochemical
Protocol: Experiments were conducted during development of embodiments herein to evaluate the stability of Compound 6 in various reconstitution buffer formulation. Briefly, 12 mg of Poloxamer 407 (P-407) was melted at 70˜75° C., and 4.2 μmol of Compound 6 was dissolved in 1 mL EtOH, followed by transferring the resulting solution to the melted P-407. The resulting mixture was rotated at 65˜75° C. to afford a homogeneous solution. The resulting solution was concentrated in vacuo and resuspended in 6 ml MQ water. 1 mL aliquots of the resuspended Compound 6 was then distributed into sample vials, frozen, and lyophilized to afford a formulated cake. Sample formulated cakes were then reconstituted in DPBS, HEPES, or Tris (pH 6.5, 7.5, or 8.0) buffers. Stability and purity were determined by LC-MS.

[2] = Systematic stability study of formulated Compound 6 reconstitution in buffers, LC-MS; format: physicochemical
Protocol: In addition to the stability experiments in Example 3, an additional systematic, controlled, and comprehensive stability study was conducted to evaluate the stability of formulated Compound 6 in various buffer formulation. Briefly, 4.2 μmol of Compound 6 was reconstituted in 1 mL of each buffer at the concentration and pH outlined in Table 1. Concentration and purity were determined by LC-MS. Briefly, 1 μL of sample was injected into an Eclipse RRHD C8 (50×2; 1 mm; 1.8 micron; λ=254 nm) with an aqueous mobile phase of 0.1% TFA in Nanopure water and an organic mobile phase of acetonitrile.

[3] = target: T1, NLuc-HaloTag fusion (Oplophorus gracilirostris, UniProt Q9GV45, A31E/A60N/A81I/F95D/I117V/K70R/L54V/L99Q/M102K/N193R/P142E/Q151K/Q38R/Q45L/V71I/Y165I); assay: Total bioluminescence of purified NLuc-HaloTag fusion with substrate; format: biochemical; conditions: purified NLuc-HaloTag fusion 6 nM, substrate 20 μM, 1 min; compared to Furimazine and FluoroFurimazine
T1 construct: HaloTag (fusion partner)
T1 sequence (Q9GV45 other isoform, or with tags, fused parts or gaps with the stated changes): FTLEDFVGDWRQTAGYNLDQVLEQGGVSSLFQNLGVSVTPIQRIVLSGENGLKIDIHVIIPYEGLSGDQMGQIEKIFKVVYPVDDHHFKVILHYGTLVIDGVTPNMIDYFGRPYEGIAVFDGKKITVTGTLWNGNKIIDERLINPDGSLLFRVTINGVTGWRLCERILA
Protocol: (§1) Experiments were conducted during development of embodiments herein to evaluate the influence of Furimazine analogs on the intensity of bioluminescence produced by either purified NLuc-HaloTag fusion or purified chimera (i.e., HT178-cpNLuc-179, generated by insertion of cpNLuc into HaloTag). Briefly, purified NLuc-HaloTag fusion or chimera was diluted in TBS+0.1% BSA to a final concentration of 6 nM, treated with substrate at a final concentration of 20 μM, and incubated for 1 min before measurements of total bioluminescence on a GloMax® Discover plate reader (Promega; n=3) or measurements of bioluminescence intensity across 400-600 nm on an Infinite M1000 plate reader (Tecan; n=1).

[4] = system: chimera (HT178-cpNLuc-179); assay: Total bioluminescence of purified chimera with substrate; format: biochemical; conditions: purified chimera 6 nM, substrate 20 μM, 1 min; compared to Furimazine and FluoroFurimazine
Protocol: as §1

[5] = target: T1, NLuc-HaloTag fusion; assay: Bioluminescence of HeLa cells transiently expressing NLuc-HaloTag fusion; format: cell-based; conditions: substrate 10 μM, 1 min, compared to Furimazine and FluoroFurimazine
Protocol: (§2) Additional experiments were conducted during development of embodiments herein to evaluate the influence of Furimazine analogs on the intensity of bioluminescence produced by transiently expressed NLuc-HaloTag fusion or chimera (i.e., HT178-cpNLuc-179, generated by insertion of cpNLuc into HaloTag). Briefly, HeLa cells diluted to 2.2×10^5 cells/mL in OptiMEM+2% serum were transfected with DNA encoding either NLuc-HaloTag fusion or chimera, plated in 96-well at 90 μL/well, and incubated overnight at 37° C.+5% CO2. Next day, cells were treated with substrate at a final concentration of 10 μM and incubated for 1 min before measurements of total bioluminescence on a GloMax® Discover plate reader (Promega; n=3) or measurements of bioluminescence intensity across 400-600 nm on an Infinite M1000 plate reader (Tecan; n=1).

[6] = system: chimera (HT178-cpNLuc-179); assay: Bioluminescence of HeLa cells transiently expressing chimera; format: cell-based; conditions: substrate 10 μM, 1 min, compared to Furimazine and FluoroFurimazine
Protocol: as §2

[7] = reconstituted using glycerol (2%)

Q: Which results are given for `O=c1c(Cc2ccco2)nc2c(Cc3ccccc3F)[nH]c(-c3cccc(F)c3F)cn1-2` [Compound 6, 6-(2,3-difluorophenyl)-8-(2-fluorobenzyl)-2-(furan-2-ylmethyl)imidazo[1,2-a]pyrazin-3(7H)-one]?
A: stability and purity ([1]; reconstituted in DPBS): lowest stability and purity; purity after 3 h ([1]; reconstituted in HEPES): about 50%; stability ([1]; reconstituted in HEPES): improved stability compared to DPBS; purity after 3 h ([1]; reconstituted in Tris buffer): ~90%; stability ([1]; reconstituted in Tris buffer): highest stability; preservation based on purity and concentration data ([2]; in Tris (pH=8) buffer): well-preserved; preservation based on purity and concentration data ([2]; in saline): well-preserved; preservation based on purity and concentration data ([2]; in water): well-preserved; precipitation / solubility ([2]; reconstituted using DPBS (pH 7.0)): visible precipitation; precipitation / solubility ([2]; reconstituted using Tris (pH=6.5)): visible precipitation; purity over a 6-hour period ([2]; reconstituted using Tris (pH=8)): greater than 90%; purity over a 6-hour period ([2]; reconstituted using acetate (sodium acetate pH 5.2)): greater than 90%; precipitation / solubility ([2]; reconstituted using bicarbonate (pH 9.5)): visible precipitation; purity over a 6-hour period ([2]; reconstituted using citrate (pH 6.0)): greater than 90%; precipitation / solubility [2, 7]: visible precipitation; purity over a 6-hour period [2, 7]: greater than 90%; purity over a 6-hour period ([2]; reconstituted using saline (0.9%)): greater than 90%; purity over a 6-hour period ([2]; reconstituted using water): greater than 90%

Q: With `Cc1ccc(Cc2nc3c(Cc4ccccc4F)[nH]c(-c4cccc(F)c4F)cn-3c2=O)o1` [Compound 10, 6-(2,3-difluorophenyl)-8-(2-fluorobenzyl)-2-((5-methylfuran-2-yl)methyl)imidazo[1,2-a]pyrazin-3(7H)-one] as the compound, how does the “bioluminescence signal as a substrate” value [3] read?
A: significantly brighter signal

Q: And the “bioluminescence signal as a substrate” value [4]?
A: significantly brighter signal

Q: And the “bioluminescence signal as a substrate” value [5]?
A: significantly brighter signal

Q: What about the “bioluminescence signal as a substrate” value [6] of the same compound?
A: significantly brighter signal
